Results as given in ChEMBL document CHEMBL4627399, “Synthesis and Structure-Activity Relationships of 5'-Aryl-14-alkoxypyridomorphinans: Identification of a μ Opioid Receptor Agonist/δ Opioid Receptor Antagonist Ligand with Systemic Antinociceptive Activity and Diminished Opioid Side Effects” (J Med Chem, 2020).
pEC50, pIC50, pKi: −log10 of the molar value. The source made the active and inactive calls. The calls are words filed in the database; no cut-off is given here.

Experiments:
[1] = target: T1, Delta-type opioid receptor (Homo sapiens, UniProt P41143); experiment: Displacement of [3H]-diprenorphine from human delta opioid receptor expressed in CHO cell membranes incubated for 1 hr by competition radioligand binding assay
[2] = target: T2, Kappa-type opioid receptor (Homo sapiens, UniProt P41145); experiment: Displacement of [3H]-diprenorphine from human kappa opioid receptor expressed in CHO cell membranes incubated for 1 hr by competition radioligand binding assay
[3] = target: T1, Delta-type opioid receptor; experiment: Antagonist activity at human delta opioid receptor expressed in CHO cell membranes assessed as reduction in SNC80-induced [35S]GTPgammaS binding preincubated for 5 mins followed by SNC80 addition and measured after 1 hr; assay type: functional
[4] = target: T2, Kappa-type opioid receptor; experiment: Agonist activity at human kappa opioid receptor expressed in CHO cell membranes incubated for 1 hr by [35S]GTPgammaS binding assay; assay type: functional; conditions: for pEC50: read-out: EC50; for EC50: cho
[5] = Stability in human liver microsomes at 1 uM measured up to 60 mins by LC-MS/MS analysis; assay type: ADME, Microsome; conditions: 1 h
[6] = target: T3, Mu-type opioid receptor (Homo sapiens, UniProt P35372); experiment: biochemical; assay type: cell-based, CHO
[7] = target: T2, Kappa-type opioid receptor; experiment: Agonist activity at human kappa opioid receptor expressed in CHO cell membranes assessed as stimulation of [35S]GTPgammaS binding incubated for 1 hr relative to […]; assay type: functional
[8] = target: T3, Mu-type opioid receptor; experiment: biochemical

SMILES | pKi [1] | pKi [2] | pIC50 [3] | pEC50 [4] | Stability [5] | pKi [6] | EC50 [4] | Emax [7] | pEC50 [8]
Oc1ccc2c3c1O[C@H]1c4ncc(-c5ccc(Br)cc5)cc4C[C@@]4(OCCCc5ccccc5)[C@@H](C2)N(CC2CC2)CC[C@]314 | 7.68 | 7.12 | > 9.29 | 8.26 | Stable |  |  |  | 
Oc1ccc2c3c1O[C@H]1c4ncc(-c5ccc(Cl)cc5)cc4C[C@@]4(OCCCc5ccccc5)[C@@H](C2)N(CC2CC2)CC[C@]314 |  |  |  |  | Stable |  |  |  | 
Oc1ccc2c3c1O[C@H]1c4ncc(-c5cnccn5)cc4C[C@@]4(OCCCc5ccccc5)[C@@H](C2)N(CC2CC2)CC[C@]314 | 7.40 | 7.70 | 8.90 |  | Stable | 7.05 | Not Active | inactive | < 5.48
Oc1ccc2c3c1O[C@H]1c4ncc(-c5ccccc5)cc4C[C@@]4(OCCCc5ccccc5)[C@@H](C2)N(CC2CC2)CC[C@]314 | 7.71 | 6.88 | 9.03 | < 5.48 | Stable | 7.64 |  |  | 8.90
Oc1ccc2c3c1O[C@H]1c4ncc(-c5ccncn5)cc4C[C@@]4(OCCCc5ccccc5)[C@@H](C2)N(CC2CC2)CC[C@]314 | 7.66 | 7.51 | 9.15 |  | Stable | 7.18 | Not Active | inactive | < 5.48
CN(C)c1cccc(-c2cnc3c(c2)C[C@@]2(OCCCc4ccccc4)[C@H]4Cc5ccc(O)c6c5[C@@]2(CCN4CC2CC2)[C@H]3O6)c1 | 7.16 | 7.92 | 8.42 |  | Stable | 7.80 | Not Active | inactive | 8.82
Oc1ccc2c3c1O[C@H]1c4ncc(-c5ccncc5)cc4C[C@@]4(OCCCc5ccccc5)[C@@H](C2)N(CC2CC2)CC[C@]314 | 8.19 | 7.80 | 7.74 |  | Stable | 7.33 | Not Active | inactive | 7.25
COc1ccccc1-c1cnc2c(c1)C[C@@]1(OCCCc3ccccc3)[C@H]3Cc4ccc(O)c5c4[C@@]1(CCN3CC1CC1)[C@H]2O5 | 7.53 | 6.90 | 9.10 |  | Stable | 7.21 | Not Active | inactive | 8.14
Oc1ccc2c3c1O[C@H]1c4ncc(-c5ccccc5)cc4C[C@@]4(OCCCC5CCOCC5)[C@@H](C2)N(CC2CC2)CC[C@]314 | 7.19 | 7.61 | > 9.77 |  | Stable |  |  |  | 
Oc1ccc2c3c1O[C@H]1c4ncc(-c5cccnc5)cc4C[C@@]4(OCCCc5ccccc5)[C@@H](C2)N(CC2CC2)CC[C@]314 | 7.51 | 7.56 | 9.17 |  | Stable | 7.08 | Not Active | inactive | < 5.48
Oc1ccc2c3c1O[C@H]1c4ncc(-c5ccccc5)cc4C[C@@]4(OCCCCc5ccccc5)[C@@H](C2)N(CC2CC2)CC[C@]314 | 7.84 | 7.24 | 7.18 |  | Stable | 7.04 |  |  | 7.61
Cc1cccc(C)c1-c1cnc2c(c1)C[C@@]1(OCCCc3ccccc3)[C@H]3Cc4ccc(O)c5c4[C@@]1(CCN3CC1CC1)[C@H]2O5 | 7.03 | 6.87 | 7.29 |  | Stable | 6.60 |  |  | 8.47
Oc1ccc2c3c1O[C@H]1c4ncc(-c5ccc(F)cc5)cc4C[C@@]4(OCCCc5ccccc5)[C@@H](C2)N(CC2CC2)CC[C@]314 | 8.47 | 8.17 | 7.46 | 7.25 | Stable | 8.63 |  |  | 6.93
Cc1nocc1-c1cnc2c(c1)C[C@@]1(OCCCc3ccccc3)[C@H]3Cc4ccc(O)c5c4[C@@]1(CCN3CC1CC1)[C@H]2O5 | 7.19 | 7.64 | 9.17 |  | Stable | 7.00 |  |  | 8.46
Oc1ccc2c3c1O[C@H]1c4ncc(-c5ccc(F)cc5F)cc4C[C@@]4(OCCCc5ccccc5)[C@@H](C2)N(CC2CC2)CC[C@]314 | 7.27 | 7.44 | 8.49 |  | Stable | 6.77 |  |  | 6.89
Cn1cc(-c2cnc3c(c2)C[C@@]2(OCCCc4ccccc4)[C@H]4Cc5ccc(O)c6c5[C@@]2(CCN4CC2CC2)[C@H]3O6)cn1 | 8.10 | 8.08 | 7.71 |  | Stable | 8.42 | Not Active | inactive | 6.18

SMILES | pKi [1] | pKi [2] | pIC50 [3] | pEC50 [4] | Stability [5] | pKi [6] | EC50 [4] | Emax [7] | pEC50 [8]
CN(C)c1ccccc1-c1cnc2c(c1)C[C@@]1(OCCCc3ccccc3)[C@H]3Cc4ccc(O)c5c4[C@@]1(CCN3CC1CC1)[C@H]2O5 | 7.16 | 8.10 | 7.91 |  | Stable | 8.16 | Not Active | inactive | 6.63
COc1ccc(-c2cnc3c(c2)C[C@@]2(OCCCc4ccccc4)[C@H]4Cc5ccc(O)c6c5[C@@]2(CCN4CC2CC2)[C@H]3O6)cc1 | 7.51 | 6.85 | 7.66 | 8.69 | Stable |  |  |  | 
CC(=O)Nc1cccc(-c2cnc3c(c2)C[C@@]2(OCCCc4ccccc4)[C@H]4Cc5ccc(O)c6c5[C@@]2(CCN4CC2CC2)[C@H]3O6)c1 | < 5.48 | 6.22 |  |  | Stable | 6.47 |  |  | 
Oc1ccc2c3c1O[C@H]1c4ncc(-c5ccc(F)c(F)c5)cc4C[C@@]4(OCCCc5ccccc5)[C@@H](C2)N(CC2CC2)CC[C@]314 | 8.12 | 7.15 |  |  | Stable | 6.43 |  |  | 
CC(=O)Nc1ccc(-c2cnc3c(c2)C[C@@]2(OCCCc4ccccc4)[C@H]4Cc5ccc(O)c6c5[C@@]2(CCN4CC2CC2)[C@H]3O6)cc1 | 6.40 | 7.82 |  |  | Stable | 6.80 |  |  | 
Oc1ccc2c3c1O[C@H]1c4ncc(-c5ccccc5)cc4C[C@@]4(OCCCC5CCCCC5)[C@@H](C2)N(CC2CC2)CC[C@]314 | 7.89 | 7.24 | 7.54 | 7.46 | Stable | 7.02 |  |  | 7.63
CN(C)c1ccc(-c2cnc3c(c2)C[C@@]2(OCCCc4ccccc4)[C@H]4Cc5ccc(O)c6c5[C@@]2(CCN4CC2CC2)[C@H]3O6)cc1 | 7.27 | 8.21 | 8.60 |  | Stable | 8.33 | Not Active | inactive | 8.68
Oc1ccc2c3c1O[C@H]1c4ncc(-n5cccc5)cc4C[C@@]4(OCCCc5ccccc5)[C@@H](C2)N(CC2CC2)CC[C@]314 | > 9.77 | 7.86 | 9.01 |  | Stable | 7.83 | Not Active | inactive | 8.79
Cc1ccccc1-c1cnc2c(c1)C[C@@]1(OCCCc3ccccc3)[C@H]3Cc4ccc(O)c5c4[C@@]1(CCN3CC1CC1)[C@H]2O5 | 7.01 | 6.82 | 7.84 |  | Stable | 6.63 |  |  | 8.26
Cc1ccc(-c2cnc3c(c2)C[C@@]2(OCCCc4ccccc4)[C@H]4Cc5ccc(O)c6c5[C@@]2(CCN4CC2CC2)[C@H]3O6)cc1 | 7.46 | 6.99 | 8.44 |  | Stable | 6.72 |  |  | 8.64
Oc1cccc(-c2cnc3c(c2)C[C@@]2(OCCCc4ccccc4)[C@H]4Cc5ccc(O)c6c5[C@@]2(CCN4CC2CC2)[C@H]3O6)c1 | 8.08 | 7.74 | 8.89 |  | Stable | 7.89 |  |  | 8.95
Oc1ccc2c3c1O[C@H]1c4ncc(-c5ccccn5)cc4C[C@@]4(OCCCc5ccccc5)[C@@H](C2)N(CC2CC2)CC[C@]314 | 8.19 | 7.72 | 9.29 |  | Stable | 6.98 |  |  | 6.28
Oc1ccc2c3c1O[C@H]1c4ncc(-c5ccccc5C5CC5)cc4C[C@@]4(OCCCc5ccccc5)[C@@H](C2)N(CC2CC2)CC[C@]314 | 7.19 | 6.76 | 8.61 |  | Stable | 6.87 |  |  | 6.85
Cc1cc(F)ccc1-c1cnc2c(c1)C[C@@]1(OCCCc3ccccc3)[C@H]3Cc4ccc(O)c5c4[C@@]1(CCN3CC1CC1)[C@H]2O5 | 8.42 | 6.89 | 7.55 |  | Stable |  | Not Active | inactive | 
Oc1ccc2c3c1O[C@H]1c4ncc(-c5ccccc5)cc4C[C@@]4(OCCCc5ccc(F)cc5)[C@@H](C2)N(CC2CC2)CC[C@]314 | 7.96 | 7.22 | 7.20 |  | Stable |  | Not Active | inactive | 
